These compounds were tested against T1, Human Recombinant Matriptase 2 (Homo sapiens, UniProt Q8IU80) (assay: Matriptase 2 fluorescence based inhibition assay, Method B (50 mM TRIS pH 7.5, 150 mM NaCl, 0.01% gelatin)). Conditions: 1 uM compound; Assay Used = B.
T1 construct: purchased Enzo Life Sciences (an in-house preparation was also used) ALX-201-752-1
T1 sequence (Q8IU80 1-811): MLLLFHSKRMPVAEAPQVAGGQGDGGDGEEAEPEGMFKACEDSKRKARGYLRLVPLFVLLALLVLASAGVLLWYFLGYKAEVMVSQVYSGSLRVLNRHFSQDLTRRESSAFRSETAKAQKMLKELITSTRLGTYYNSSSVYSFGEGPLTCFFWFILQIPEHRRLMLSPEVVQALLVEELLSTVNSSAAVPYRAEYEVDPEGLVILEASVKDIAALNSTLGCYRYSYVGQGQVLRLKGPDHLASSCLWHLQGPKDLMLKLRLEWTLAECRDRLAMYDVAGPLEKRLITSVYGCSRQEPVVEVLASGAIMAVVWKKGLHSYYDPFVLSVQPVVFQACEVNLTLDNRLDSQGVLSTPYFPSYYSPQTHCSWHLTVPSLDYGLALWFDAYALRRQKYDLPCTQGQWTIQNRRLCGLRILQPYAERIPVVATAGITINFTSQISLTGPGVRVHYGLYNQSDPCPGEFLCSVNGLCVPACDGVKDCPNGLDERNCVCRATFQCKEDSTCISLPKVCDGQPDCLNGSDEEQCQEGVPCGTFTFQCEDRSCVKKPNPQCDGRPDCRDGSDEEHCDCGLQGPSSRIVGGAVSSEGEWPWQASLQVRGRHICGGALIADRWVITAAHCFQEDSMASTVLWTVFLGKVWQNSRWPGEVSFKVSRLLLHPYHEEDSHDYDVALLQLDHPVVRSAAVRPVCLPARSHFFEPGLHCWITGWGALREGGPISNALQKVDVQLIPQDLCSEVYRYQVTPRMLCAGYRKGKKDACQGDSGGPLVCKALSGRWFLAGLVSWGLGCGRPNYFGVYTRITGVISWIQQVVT
Type: biochemical
Procedure, shortened: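 Fluorogenic substrate Boc-Gln-Ala-Arg-7-amido-4-methylcoumarin (100 μM) cleavage read at Ex 360/Em 480 nm 60 min after addition, following 30 min enzyme–compound preincubation at 25° C. Enzyme was 7 nM commercial or 15 nM in-house; DMSO 1%. IC50s fitted by non-linear sigmoidal regression.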

SMILES | Mar-2 % inhibition at 1 uM
CC(C)(C)OC(=O)N[C@H]1CC[C@H](NC(=O)c2cc3ccc(C(=N)N)cc3n2Cc2ccc3ccccc3c2)CC1 [Compound I-402, tert-butyl ((1r,4r)-4-(6-carbamimidoyl-1-(naphthalen-2-ylmethyl)-1H-indole-2-carboxamido)cyclohexyl) carbamate] | A (A represents 0%≤I≤25%)
N=C(N)c1ccc2cc(C(=O)NCC3(CN)CCCCC3)n(Cc3cccc4ccccc34)c2c1 [Compound I-474] | D (D represents 75%≤I≤100%)

Same assay, conditions: 1 uM compound; Assay Used = B (Method B); read-out: Mar-2 % inhibition at 1 uM

SMILES | inhibition at 1 µM [%]
CCOC(=O)c1cc2ccc(/C(N)=N/O)cc2n1Cc1cccc2ccccc12 [Compound I-675, Ethyl (Z)-6-(N′-hydroxycarbamimidoyl)-1-(naphthalen-1-ylmethyl)-1H-indole-2-carboxylate] | 0 to 25
N=C(N)c1ccc2cc(C(=O)N[C@H]3CC[C@H](N)CC3)n(Cc3cccc4c(Oc5ccccc5)cccc34)c2c1 [Compound I-731] | 75 to 100
N=C(N)c1ccc2cc(C(=O)O)n(Cc3cc(OS(=O)(=O)c4ccccc4)cc4ccccc34)c2c1 [Compound I-621] | 75 to 100
N=C(N)c1ccc2cc(C(=O)Nc3ccc4ncccc4c3)n(Cc3cccc4ccccc34)c2c1 [Compound I-771] | 25 to 50
CCCCCCOC(=O)NC(=N)c1ccc2cc(C(=O)NC3CCN(C)CC3)n(Cc3cccc4ccccc34)c2c1 [Compound I-765] | 0 to 25
Cc1nnc(-c2cc3ccc(C(=N)N)cc3n2Cc2cccc3ccccc23)o1 [Compound I-751, 2-(5-methyl-1,3,4-oxadiazol-2-yl)-1-(naphthalen-1-ylmethyl)-1H-indole-6-carboximidamide] | 50 to 75
N=C(N)c1ccc2cc(C(=O)O)n(Cc3cc(S(=O)(=O)c4ccccc4)cc4ccccc34)c2c1 [Compound I-678] | 50 to 75
CN(C)C(=O)c1cc2ccc(C(=N)N)cc2n1Cc1cccc2ccccc12 [Compound I-624] | 25 to 50
N=C(N)c1ccc2cc(C(=O)O)n(Cc3ccc(Oc4ccccc4)c4ccccc34)c2n1 [Compound I-679] | 25 to 50
CS(=O)(=O)Nc1cc2ccc(C(=N)N)cc2n1Cc1cccc2ccccc12 [Compound I-749, 2-(methylsulfonamido)-1-(naphthalen-1-ylmethyl)-1H-indole-6-carboximidamide] | 50 to 75
Cn1c(C(=O)O)c(Cc2cccc3ccccc23)c2cc(C(=N)N)ccc21 [Compound I-689] | 75 to 100
N=C(N)c1ccc2cc(C(=O)N[C@H]3CC[C@H](N)CC3)n(Cc3cccc4cc(OCc5ccccc5)ccc34)c2c1 [Compound I-740] | 75 to 100
N=C(N)c1ccc2cc(C(=O)O[C@H]3CC[C@@H](N)CC3)n(Cc3cccc4ccccc34)c2c1 [Compound I-744] | 75 to 100
CO/N=C(/N)c1ccc2cc(C(=O)O)n(Cc3cccc4ccccc34)c2c1 [Compound I-699, (E)-6-(N′-methoxycarbamimidoyl)-1-(naphthalen-1-ylmethyl)-1H-indole-2-carboxylic Acid] | 0 to 25
N=C(N)c1ccc2cc(C(=O)N[C@H]3CC[C@H](N)CC3)n(Cc3cc(C(=O)OCc4ccccc4)cc4ccccc34)c2c1 [Compound I-774] | 75 to 100
N=C(N)c1ccc2cc(CC(=O)N[C@H]3CC[C@H](N)CC3)n(Cc3cccc4ccccc34)c2c1 [Compound I-717] | 75 to 100
N=C(N)c1ccc2cc(C(=O)NC3CCC(N)CC3)n(Cc3ccc(CN)c4ccccc34)c2c1 (stereo not drawn) [Compound I-666] | 50 to 75
N=C(N)c1ccc2cc(C(=O)N[C@H]3CC[C@H](N)CC3)n(Cc3cccc4cc(Oc5ccccc5)ccc34)c2c1 [Compound I-707] | 75 to 100
CC(C)COC(=O)NC(=N)c1ccc2cc(C(=O)O)n(Cc3cccc4ccccc34)c2n1 [Compound I-674] | 25 to 50
CCOC(=O)c1cc2ccc(C(=N)NC(=O)OCC(C)C)nc2n1Cc1cccc2ccccc12 [Compound I-676] | 0 to 25
N=C(N)c1ccc2cc(N3CCOC3=O)n(Cc3cccc4ccccc34)c2c1 [Compound I-726, 1-(naphthalen-1-ylmethyl)-2-(2-oxooxazolidin-3-yl)-1H-indole-6-carboximidamide] | 25 to 50

Same assay, conditions: 1 uM compound; Assay Used = B; read-out: Mar-2 % inhibition at 1 uM

SMILES | inhibition at 1 µM [%]
CC(C)(C)OC(=O)NC(=N)c1ccc2cc(C(=O)NCC3CCN(C(=O)OC(C)(C)C)CC3)n(Cc3cccc4ccccc34)c2c1 [Compound I-492, tert-butyl4-((6-(N-(tert-butoxycarbonyl)carbamimidoyl)-1-(naphthalen-1-ylmethyl)-1H-indole-2-carboxamido)methyl)piperidine-1-carboxylate] | 25 to 50
NCc1ccc2cc(C(=O)N[C@H]3CC[C@H](N)CC3)n(Cc3cccc4ccccc34)c2c1 [Compound I-531, N-((1r,4r)-4-aminocyclohexyl)-6-(aminomethyl)-1-(naphthalen-1-ylmethyl)-1H-indole-2-carboxamide] | 50 to 75
NCc1ccc2cc(C(=O)NC3CCNCC3)n(Cc3cccc4ccccc34)c2c1 [Compound I-533] | 25 to 50
CCOC(=O)c1cc2ccc(C(=N)NC(=O)OCC(C)C)cc2n1Cc1cc(Oc2ccsc2)cc2ccccc12 [Compound I-586] | 25 to 50
N=C(N)c1ccc2cc(C(=O)N[C@H]3CC[C@H](N)CC3)n(CCc3ccc4ccccc4c3)c2c1 [Compound I-410] | 25 to 50
CC(C)(C)OC(=O)N[C@H]1CC[C@H](NC(=O)c2cc3ccc(C(=N)N)cc3n2CCc2cccc3ccccc23)CC1 [Compound I-404] | 0 to 25
N=C(N)c1ccc2cc(C(=O)N[C@H]3CC[C@H](O)CC3)n(Cc3cccc4ccccc34)c2c1 [Compound I-440] | 75 to 100
NCc1ccc2cc(C(=O)O)n(Cc3cccc4ccccc34)c2c1 [Compound I-538, 6-(aminomethyl)-1-(naphthalen-1-ylmethyl)-1H-indole-2-carboxylic Acid] | 25 to 50
N=C(N)c1ccc2ccn(Cc3cccc4ccccc34)c2c1 [Compound I-521, 1-(naphthalen-1-ylmethyl)-1H-indole-6-carboximidamide] | 50 to 75
N=C(N)c1ccc2cc(C(=O)NC3CCNC(=O)C3)n(Cc3cc(Oc4ncccn4)cc4ccccc34)c2c1 (racemic) [Compound I-560] | 50 to 75
COC(=O)[C@H]1CC[C@H](NC(=O)c2cc3ccc(C(=N)N)cc3n2Cc2cccc3ccccc23)CC1 [Compound I-471] | 25 to 50
COC(=O)NCCOC(=O)c1cc2ccc(C(=N)N)cc2n1Cc1cc(S(=O)(=O)c2ccccc2)cc2ccccc12 [Compound I-556] | 25 to 50
CC(C)(C)OC(=O)NC(=N)c1ccc2cc(C(=O)N[C@H]3CC[C@H](NC(=O)OC(C)(C)C)CC3)n(Cc3ccc(C(N)=O)cc3)c2c1 [Compound I-495] | 0 to 25
CN1CCC(COC(=O)c2cc3ccc(C(=N)N)cc3n2Cc2cc(Oc3ncccn3)cc3ccccc23)CC1 [Compound I-562] | 50 to 75
N=C(N)c1ccc2cc(C(=O)NC3CCCC(N)C3)n(Cc3cccc4ccccc34)c2c1 (stereo not drawn) [Compound I-467] | 75 to 100
N=C(N)c1ccc2cc(C(=O)N[C@@H]3CCNC3)n(Cc3cccc4ccccc34)c2c1 [Compound I-433] | 75 to 100
CCNC(=N)c1ccc2cc(C(=O)N[C@H]3CC[C@H](NC(=O)OC(C)(C)C)CC3)n(Cc3ccc4ccccc4c3)c2c1 [Compound I-411, Tert-butyl ((1r,4r)-4-(6-(N-ethylcarbamimidoyl)-1-(naphthalen-2-ylmethyl)-1H-indole-2-carboxamido)cyclohexyl)carbamate] | 0 to 25

Same assay, conditions: compound at 1 uM; Assay Used: B; read-out: Mar-2 % inhibition at 1 uM

SMILES | inhibition at 1 µM [%]
N/C(=N\O)c1ccc2cc(C(=O)O[C@H]3CC[C@H](N)CC3)n(Cc3cccc4ccccc34)c2c1 [Compound I-810, (1r,4r)-4-aminocyclohexyl 6-((Z)—N′-hydroxycarbamimidoyl)-1-(naphthalen-1-ylmethyl)-1H-indole-2-carboxylate] | 25 to 50
N=C(N)c1ccc2cc(C(=O)N[C@H]3CC[C@H](N)CC3)n(Cc3cccc4ccsc34)c2c1 [Compound I-818] | 50 to 75
COC(=O)c1ccc(Cn2c(C(=O)N[C@H]3CC[C@H](N)CC3)cc3ccc(C(=N)N)cc32)c2ccccc12 [Compound I-825] | 75 to 100
N=C(N)c1ccc2cc(C(=O)N[C@H]3CC[C@H](N)CC3)n(Cc3ccc(CO)c4ccccc34)c2c1 [Compound I-824] | 75 to 100

Same assay, conditions: read-out: Mar-2 % inhibition at 1 uM

SMILES | inhibition at 1 µM [%]
CN1CCC(NC(=O)c2cc3ccc(C(=N)NC(=O)Oc4ccc(F)cc4)cc3n2Cc2cc(Oc3ncccn3)cc3ccccc23)CC1 [Compound I-545] | 25 to 50
